Data set [1] in a line: Solubility. The note with it: for solubility compared with the compound described under (A): relative to Example 5(A).
A short description of data set [2]: Toxicity (LD100, LD50, MTD). In kind it is in vivo. The note with it: for LD50 / MTD: in vivo; for LD50 / MTD / LD100: species and route not given; for MTD: read-out: MTD (maximum tolerance dose).
For data set [3], the system named is learned helplessness (avoidance reaction). The data set is described as follows: Learned helplessness model (avoidance reaction, shuttle chamber). Conditions: for Average latence of avoidance period / Percent of nonavoidance from total test number / Average latence of avoidable period: CAPAH 90 mg/kg, melipramine 7 mg/kg, i.p. In kind it is in vivo, mice. As to the method:
The phenomenon of learned helplessness is that exposure to uncontrollable stress produces deficits in subsequent learning tasks. The preliminary non-avoidable aversive phase of the test was carried out in dark chambers (30 cm×15 cm×15 cm) with electrodes in the floor. Mice were placed into the chambers individually where they received a number of stimuli (150 mkA, 60 Hz) for 6 seconds with 30 second intervals. Exposure lasted for 40 minutes. 24 hours later the animals were tested in a "shuttle" chamber which consisted of two compartments with the electrode floor connected by the opening situated 1 cm above the base. The entrance to the neighbouring compartment was blocked by a door operated automatically. Stimulation (150 mkA) was directed in turn to each compartment with 30 second intervals and 4 seconds lag. After 10 sessions the door was closed and electric current stopped. The average summary latent time of avoidance was estimated as well as the total number of non-fulfilled reactions.
Experiments were carried out in 40 male […] weighing 18-20 g. Melipramine was used as a standard preparation. Preparations were injected intraperitoneally in doses: CAPAH--90 mg/kg, melipramine--7 mg/kg. Control animals received an equal quantity of distilled water. In the first control group (control 1) mice were not exposed to non-avoidable aversive stimulations; in the second control group (control 2) the animals were exposed to the preliminary non-avoidable aversive influence but without drug preparations.

Data set [4] relates to hypoxia induced by sodium nitrite. Nature of the data set: Lifetime following hypoxia induced by sodium nitrite. Type of data set: in vivo, white mice. Conditions: 90 mg/kg i.p. As to the method: (§1) The potential of CAPAH to provide neuroprotection following a stroke was illustrated by its anti-hypoxic properties in mice using both hypoxia induced directly by lack of oxygen in the atmosphere and hypoxia induced by sodium nitrite injection.
White mice in groups of eight with a weight in the range of 18 to 21 grams were injected subcutaneously with 300 mg/kg of aqueous sodium nitrite and their subsequent lifetime was recorded. A control group of mice received no additional pre-treatment but a second group received a prior intraperitoneal injection of 90 mg/kg CAPAH.

The subject of data set [5] is hypoxia induced amnesia. The data set is described as follows: Hypoxia induced amnesia, passive avoidance test. In kind it is in vivo, Mongolian Gerbil. An excerpt: (§2) The protective effect of the compound CAPAH was studied in relation to both scopolamine and hypoxia induced amnesia in gerbils by the passive avoidance test.
(§3) Gerbils underwent a training schedule of "passive avoidance", i.e. they learned not to enter a dark compartment into which an electric shock was delivered.
The gerbils were trained as described above. To produce a hypoxic environment a gas-mixture (4% oxygen, 96% nitrogen) was blown through a plastic box (12 l/min). Immediately after the training period the gerbil was put into this hypoxic environment and removed when gasping was shown (maximum stay in the hypoxic box is 40 seconds).
(§4) The gerbils were trained as described above in a step-down type passive avoidance apparatus (Model E13-08, Coulbourn Instruments, Lehigh Valley, USA), divided into a safe part and a grill part. […] Training of the passive avoidance was carried out for 5 minutes. The gerbils were placed on the safety platform and received a series of mild electric shocks, […] (shock sensitivity determined for each batch of gerbils) for 3 seconds every 6 seconds when it stepped off the grill. Gerbils were returned to the apparatus for testing 24 hours later and their step-down latencies to the grill floor (recall latency) were recorded (maximum 60 seconds).
(§5) In both these series of experiments Piracetam was used as a control.

Data set [6] concerns haloperidol-induced catalepsy. Nature of the data set: Impact on catalepsy caused by haloperidol. In kind it is in vivo. Conditions: 100 mg/kg. As to the method:
Catalepsy was evaluated from the animal's ability to maintain an awkward posture (hind legs placed on a 30 mm high pedestal and forelegs on the bench) for 90 seconds at intervals of 10, 60 and 120 minutes after the latest administration of haloperidol.

Data set [7] deals with hypoxia induced by direct lack of oxygen. The data set is described as follows: Lifetime following hypoxia induced by direct lack of oxygen. Type of data set: in vivo, white mice. As to the method:
as §1
White mice in groups of six with a standard weight of 18 grams were placed in hermetically sealed jars and the lifetime of the animals was recorded.

The test system of data set [8] is scopolamine induced amnesia. Nature of the data set: Scopolamine induced amnesia, passive avoidance test. In kind it is in vivo, Mongolian Gerbil. As to the method:
as §2, §3
Scopolamine Induced Amnesia
Gerbils received an intra-peritoneal injection of scopolamine (0.5 mg/kg) 30 minutes before the training procedure. The ability of CAPAH, given prior to scopolamine, to prevent the induced amnesia was determined.
as §4, §5

The test system of data set [9] is apomorphine-induced hypothermia. Nature of the data set: Apomorphine-induced hypothermia in mice. In kind it is in vivo. Conditions: 90 mg/kg, 40 min before apomorphine 25 mg/kg s.c. As to the method:
The effect of CAPAH on apomorphine-induced hypothermia and stereotypy was evaluated. The hypothermia was induced by subcutaneously injecting mice with 25 mg/kg of apomorphine. The change in skin temperature was recorded by a TPEM-1 thermometer immediately before injecting with apomorphine and also 60 and 120 minutes after the administration.
(§6) Stereotypy in rats was induced by subcutaneous administration of 20 mg/kg of apomorphine. The total duration of the stereotypy episode was evaluated and also the intensity of individual components thereof (licking, gnawing, sniffing). CAPAH was administered 40 minutes before the apomorphine as a 90 mg/kg dose to the mice and 100 mg/kg dose to the rats.

The nature of data set [10]: Pharmacological investigation (central nervous system). The note with it: in vivo.
Data set [11] deals with apomorphine-induced stereotypy. The data set is described as follows: Apomorphine-induced stereotypy in rats. Conditions: 100 mg/kg, 40 min before apomorphine 20 mg/kg s.c. Type of data set: in vivo. As to the method: as §6
The subject of data set [12] is L-dopa induced hypothermia and motor activity. Nature of the data set: Interaction with L-dopa (hypothermia, depression and reduction of motor activity). Conditions: 100 mg/kg; L-dopa 150 mg/kg, mice. In kind it is in vivo. As to the method:
L-3,4-dihydroxyphenylalanine (L-dopa) was administered in a 150 mg/kg dose, which induces hypothermia, depression and reduction of motor activity.

In data set [13] the test system is mice immobilization (behavioural despair). The data set is described as follows: Behavioural despair model (duration of immobilization, swimming). The note with it: 90 mg/kg; for Duration of mice immobilization, behavioural despair test: 6 minutes of observation. In kind it is in vivo, mice (tetrahybrids SVA). As to the method: In this test, mice (tetrahybrids SVA) were obliged to swim in a limited space, presented as a cylindrical vessel which was 15 cm high containing a water level of 6 cm maintained at a temperature of 21° C. A "slowing down" of swimming activity was observed. This "slowing down" is regarded to reflect the state of lowering of spirits and increasing despair of the mice. The slowing down is diminished by anti-depressants.
CAPAH was investigated in acute and chronic application (for 10 days). The mean duration of animal immobility for 6 minutes of observation was estimated in seconds.
CAPAH was injected in a dose of 90 mg/kg 40 minutes before the experiment.

The conditions of data set [14]: U.S. Pat. Nos. 4,162,264 and 4,162,311; cited from earlier work.

Structures can show the parent of a compound that is named as a salt.

These results are taken from patent US5679663A, “Pharmaceutical compounds” (priority 1996, dated 1997).

For orientation: LD50 means the dose at which mortality reaches 50%. A lower LD50 goes with greater toxicity. What is called MTD is the largest dose that counted as tolerated.

Take `CN(C)c1ccc(P(=O)(CC(=O)NN)OCCCl)cc1` (stereo not drawn) [CAPAH hydrochloride]: in data set [1] (water), the water solubility result was “high water solubility”.

On to `CN(C)c1ccc(P(=O)(CC(=O)NN)OCCCl)cc1` (stereo not drawn) [CAPAH, (2-chloroethoxy)(p-N,N-dimethylaminophenyl)phosphinylacetohydrazide], for which the “interval between the maximum tolerance dose (MTD) and the LD100” value in [2] (comparison with DPAH) is recorded as “significantly greater interval”. Also, the “toxicity compared with DPAH” value in data set [2] (comparison with DPAH) is listed as “less toxic”. The compound further showed an LD50 in [2] of 960 ± 35 mg/kg. Besides, in data set [2], the maximum tolerated dose (MTD) was found to be 700 mg/kg. For the same compound, the LD100 in data set [2] came out at 1200 mg/kg. In data set [3] (90 mg/kg, single and chronic treatment), the “anti-depressant effects, learned helplessness” value is reported as “marked anti-depressant effects”. In addition, in data set [3] (6-fold injection), the “Average latence of avoidance period” value is 9.0 ± 0.7. The “Percent of nonavoidance from total test number” value in data set [3] (6-fold injection) came out at 2%; in [3] (12-fold injection), 1.3%; in [3] (single injection), 19%. The “Average latence of avoidable period” value in [3] (12-fold injection) stood at 7.9 ± 0.7; in data set [3] (single injection) it was 12.1 ± 1.5. For the same compound, the “effect on lifetime, hypoxia induced by sodium nitrite” value in [4] is recorded as “extension of lifetime”. For the same compound, in [4] (sodium nitrite 300 mg/kg s.c.), the “Lifetime (± deviation), hypoxia induced by sodium nitrite” value was determined as 16.9 ± 1.0 min. For the same compound, the “Latency (sec ± SEM), hypoxia induced amnesia” value in data set [5] (1 mg/kg) came out at 135 ± 21 s; in [5] (10 mg/kg) it was 111 ± 25 s; in data set [5] (30 mg/kg) it was 71 ± 28 s; in data set [5] (100 mg/kg) it was 119 ± 23 s; in [5] (300 mg/kg) it was 20 ± 8 s. Besides, in data set [5] (300 mg/kg (1/3 DL50)), the “toxicity of the dose” value was “toxic”. Besides, the “activity in hypoxia induced amnesia test” value in data set [5] (doses 1, 10, 100 mg/kg) is given as “active”; in data set [5] (doses 30, 300 mg/kg), “Activity was absent”. The dopamine-mimetic activity entry in data set [6] was “reveals dopamine-mimetic activity”. Further, the “effect on haloperidol induced catalepsy” value in data set [6] (haloperidol 5 mg/kg hypodermic injection) was “reduces haloperidol induced catalepsy”. For the same compound, the “Lifetime (± deviation), hypoxia by direct lack of oxygen” value in [7] (30 mg/kg i.p., second experiment) worked out at 16.4 ± 1.2 min; in data set [7] (45 mg/kg i.p., first experiment), 18.8 ± 1.1 min; in [7] (90 mg/kg i.p., first experiment) it was 17.0 ± 0.1 min. In data set [7] (90 or 45 mg/kg), the “effect on lifetime, hypoxia by direct lack of oxygen” value is “extension of lifetime”. The “Latency (sec ± SEM), scopolamine induced amnesia” value in [8] (1 mg/kg) was 35 ± 17 s; in data set [8] (10 mg/kg), 52 ± 21 s; in data set [8] (30 mg/kg), 36 ± 17 s; in data set [8] (100 mg/kg), 49 ± 16 s; in [8] (300 mg/kg), 76 ± 30 s. Also, the “memory enhancement in scopolamine-induced amnesia” value in [8] (lower doses (below 300 mg/kg)) is “a trend towards memory enhancement”. The “reversal of scopolamine-induced amnesia” value in [8] (only at 300 mg/kg) is recorded as “Statistically significant reversal”. Besides, the “effect on apomorphine-induced hypothermia” value in data set [9] is “no effect”. Further, in [10], the “effect on the central nervous system” value was “selectively affects the central nervous system”. The “effect on apomorphine-induced stereotypy” value in [11] is recorded as “no effect”. In addition, the “activity on L-dopa induced effects” value in data set [12] was “no activity”. Also, the “duration of "slowing down" (anti-depressant activity)” value in data set [13] (repeated application) was “lessens the duration of "slowing down"”. The “Duration of mice immobilization, behavioural despair test” value in [13] (repeated injection (10 days)) is recorded as 177.5 ± 17.5; in data set [13] (single injection, 40 min before), 210 ± 22.5 s.

On to `NNC(=O)CP(=O)(c1ccccc1)c1ccccc1` [DPAH, diphenylphosphinylacetohydrazide, reference compound], for which, in data set [2], the 50% lethal dose (LD50) was found to be 315 ± 24.8 mg/kg, the maximum tolerated dose (MTD) was determined as 200 mg/kg and the LD100 came out at 500 mg/kg. The “properties of DPAH” value in data set [14] was “vegetropic, anti-epileptic and anti-serotonin properties”.

Turning to `CC=CC=NNC(=O)CP(=O)(OCCCl)c1ccc(N(C)C)cc1` (stereo not drawn) [Example 5(A), N^β -(but-2-enylidene)-(2-chloroethoxy)-(p-N,N-dimethylaminophenyl)phosphinylacetohydrazide], the “solubility in dimethyl sulphoxide and other aprotic polar solvents” value in [1] (dimethyl sulphoxide and other aprotic polar solvents) is “soluble in dimethyl sulphoxide and other aprotic polar solvents”. Moreover, in data set [1] (most organic solvents and water), the “solubility in most organic solvents and in water” value was “poorly soluble”.

In the case of `CN(C)CCCN1c2ccccc2CCc2ccccc21` [Melipramine, reference compound], in [3] (6-fold injection), the “Average latence of avoidance period” value was 11.8 ± 1.5. In addition, the “Percent of nonavoidance from total test number” value in data set [3] (6-fold injection) was found to be 29%; in data set [3] (12-fold injection) it was 11%; in [3] (single injection), 43%. The “Average latence of avoidable period” value in [3] (12-fold injection) amounted to 9.2 ± 1.1; in [3] (single injection) it was 13.5 ± 1.8.

`CN(C)c1ccc(P(=O)(CC(=O)NN=CC=Cc2ccccc2)OCCCl)cc1` (stereo not drawn) [N^β -cinnamaylidene]: in data set [1], the “solubility compared with the compound described under (A)” value is on record as “similar”.

For `CN(C)c1ccc(P(=O)(CC(=O)NN=Cc2cccc([N+](=O)[O-])c2)OCCCl)cc1` (stereo not drawn) [N^β -m-nitrobenzylidene], in data set [1], the “solubility compared with the compound described under (A)” value is listed as “similar”.

With `CN(C)c1ccc(P(=O)(CC(=O)NN=Cc2ccccc2O)OCCCl)cc1` (stereo not drawn) [N^β -o-hydroxybenzylidene], the “solubility compared with the compound described under (A)” value in data set [1] is “similar”.

For the compound `NC(=O)CN1CCCC1=O` [Piracetam, reference compound], the “Latency (sec ± SEM), hypoxia induced amnesia” value in data set [5] (100 mg/kg) worked out at 107 ± 19 s. Further, the “Latency (sec ± SEM), scopolamine induced amnesia” value in data set [8] (100 mg/kg) amounted to 73 ± 24 s.
